# Measurements taken from patent publication US8609672B2, “Piperazinylpyrimidine analogues as protein kinase inhibitors” (University of the Pacific, priority 2010, dated 2013).
# Experiments:
# NCI-H226 = experiment: NCI-60 SRB growth inhibition: NCI-H226; format: cell-based, human; details: NCI-H226, Non-small cell lung cancer; 48 hours treatment
# SK-MEL-2 = experiment: NCI-60 SRB growth inhibition: SK-MEL-2; format: cell-based, human; details: SK-MEL-2, Melanoma; 48 hours treatment
# SK-MEL-28 = experiment: NCI-60 SRB growth inhibition: SK-MEL-28; format: cell-based, human; details: SK-MEL-28, Melanoma, 48 hours treatment
# KM12 = experiment: NCI-60 SRB growth inhibition: KM12; format: cell-based, human; details: KM12, Colon cancer, 48 hours treatment
# COLO 205 = experiment: NCI-60 SRB growth inhibition: COLO 205; format: cell-based, human; details: COLO 205, Colon cancer, 48 hours treatment
# A498 = experiment: NCI-60 SRB growth inhibition: A498; format: cell-based, human; details: A498, Renal cancer, 48 hours treatment
# RXF 393 = experiment: NCI-60 SRB growth inhibition: RXF 393; format: cell-based, human; details: RXF 393, Renal cancer, 48 hours treatment
# HCC-2998 = experiment: NCI-60 SRB growth inhibition: HCC-2998; format: cell-based, human; details: HCC-2998, Colon cancer; 48 hours treatment
# U251 = experiment: NCI-60 SRB growth inhibition: U251; format: cell-based, human; details: U251, CNS cancer, 48 hours treatment
# BT-549 = experiment: NCI-60 SRB growth inhibition: BT-549; format: cell-based, human
# CAKI-1 = experiment: NCI-60 SRB growth inhibition: CAKI-1; format: cell-based, human; details: CAKI-1, Renal cancer; 48 hours treatment
# SF-268 = experiment: NCI-60 SRB growth inhibition: SF-268; format: cell-based, human; details: SF-268, CNS cancer; 48 hours treatment
# NCI-H23 = experiment: NCI-60 SRB growth inhibition: NCI-H23; format: cell-based, human; details: NCI-H23, Non-small cell lung cancer; 48 hours treatment
# NCI-H322M = experiment: NCI-60 SRB growth inhibition: NCI-H322M; format: cell-based, human; details: Non-small cell lung cancer, 48 hours treatment
# NCI/ADR-RES = experiment: NCI-60 SRB growth inhibition: NCI/ADR-RES; format: cell-based, human; details: Ovarian cancer, 48 hours treatment
# SF-295 = experiment: NCI-60 SRB growth inhibition: SF-295; format: cell-based, human
# HOP-62 = experiment: NCI-60 SRB growth inhibition: HOP-62; format: cell-based, human; details: HOP-62, Non-small cell lung cancer; 48 hours treatment
# HCT-15 = experiment: NCI-60 SRB growth inhibition: HCT-15; format: cell-based, human; details: HCT-15, Colon cancer; 48 hours treatment
# UACC-257 = experiment: NCI-60 SRB growth inhibition: UACC-257; format: cell-based, human
# DU-145 = experiment: NCI-60 SRB growth inhibition: DU-145; format: cell-based, human
# NCI-H460 = experiment: NCI-60 SRB growth inhibition: NCI-H460; format: cell-based, human; details: NCI-H460, Non-small cell lung cancer, 48 hours treatment
# HCT-116 = experiment: NCI-60 SRB growth inhibition: HCT-116; format: cell-based; details: HCT-116, Colon cancer; 48 hours treatment
# SK-MEL-5 = experiment: NCI-60 SRB growth inhibition: SK-MEL-5; format: cell-based, human; details: SK-MEL-5, Melanoma; 48 hours treatment
# OVCAR-4 = experiment: NCI-60 SRB growth inhibition: OVCAR-4; format: cell-based, human; details: OVCAR-4, Ovarian cancer, 48 hours treatment
# OVCAR-5 = experiment: NCI-60 SRB growth inhibition: OVCAR-5; format: cell-based, human; details: OVCAR-5, Ovarian cancer, 48 hours treatment
# M0LT-4 = experiment: NCI-60 SRB growth inhibition: M0LT-4; format: cell-based, human; details: M0LT-4, Leukemia; 48 hours treatment
# NCI-60 cell line panel = experiment: NCI-60 SRB growth inhibition: mean over the panel; format: cell-based, human; details: mean over NCI-60 cell lines, 48 hours treatment
# HS 578T = experiment: NCI-60 SRB growth inhibition: HS 578T; format: cell-based, human; details: Breast cancer, 48 hours treatment
# MDA-MB-231/ATCC = experiment: NCI-60 SRB growth inhibition: MDA-MB-231/ATCC; format: cell-based, human; details: Breast cancer, 48 hours treatment
# SW-620 = experiment: NCI-60 SRB growth inhibition: SW-620; format: cell-based, human; details: SW-620, Colon cancer, 48 hours treatment
# 786-0 = experiment: NCI-60 SRB growth inhibition: 786-0; format: cell-based, human; details: 786-0, Renal cancer; 48 hours treatment
# OVCAR-3 = experiment: NCI-60 SRB growth inhibition: OVCAR-3; format: cell-based, human; details: OVCAR-3, Ovarian cancer; 48 hours treatment
# ACHN = experiment: NCI-60 SRB growth inhibition: ACHN; format: cell-based, human; details: Renal cancer, 48 hours treatment
# [1] = Homo sapiens, read-out: LC50 (the source's name)
smiles,measurement,setting,value
"c1ccc(Cc2cnc(N3CCN(c4ncnc5ccccc45)CC3)nc2)cc1 [Compound 4, 4-(4-(5-benzylpyrimidin-2-yl)piperazin-1-yl)quinazoline]",TGI,NCI-H226,48.40 µM
same,TGI,SK-MEL-2,35.80 µM
same,CC50,SK-MEL-28; [1],> 100 µM
same,TGI,SK-MEL-28,99.30 µM
same,CC50,KM12; [1],50.1 µM
same,TGI,KM12,25.10 µM
same,TGI,COLO 205,>100 µM
same,CC50,COLO 205; [1],> 100 µM
same,TGI,A498,24.20 µM
same,CC50,A498; [1],50.1 µM
same,CC50,RXF 393; [1],> 100 µM
same,TGI,RXF 393,57.90 µM
same,TGI,HCC-2998,60.90 µM
same,CC50,"U251; Homo sapiens, U-251, read-out: LC50 (the source's name)",54.1 µM
same,TGI,U251,24.60 µM
same,TGI,"BT-549; BT-549, Breast cancer, 48 hours treatment",18.40 µM
same,CC50,"BT-549; Homo sapiens, BT-549, 48 h, read-out: LC50 (the source's name)",43 µM
same,TGI,CAKI-1,39.30 µM
same,TGI,SF-268,57.20 µM
same,TGI,NCI-H23,30.80 µM
same,TGI,NCI-H322M,>100 µM
same,CC50,NCI/ADR-RES; [1],66.4 µM
same,TGI,NCI/ADR-RES,17.60 µM
same,CC50,"SF-295; Homo sapiens, SF-295, 48 h, read-out: LC50 (the source's name)",> 100 µM
same,TGI,"SF-295; SF-295, CNS cancer, 48 hours treatment",26.00 µM
same,TGI,HOP-62,51.60 µM
same,TGI,HCT-15,63.20 µM
same,CC50,"UACC-257; Homo sapiens, UACC-257, 48 h, read-out: LC50 (the source's name)",41.4 µM
same,TGI,"UACC-257; UACC-257, Melanoma, 48 hours treatment",16.80 µM
same,TGI,"DU-145; DU-145, Prostate cancer, 48 hours treatment",30.70 µM
same,CC50,"DU-145; Homo sapiens, DU-145, 48 h, read-out: LC50 (the source's name)",79.8 µM
same,CC50,NCI-H460; [1],55 µM
same,TGI,NCI-H460,23.70 µM
same,TGI,HCT-116,13.20 µM
same,TGI,SK-MEL-5,13.90 µM
same,CC50,OVCAR-4; [1],> 100 µM
same,TGI,OVCAR-4,>100 µM
same,CC50,OVCAR-5; [1],> 100 µM
same,TGI,OVCAR-5,69.80 µM
same,TGI,M0LT-4,40.60 µM
same,GI50,NCI-60 cell line panel; Homo sapiens,5.24 µM
same,CC50,"NCI-60 cell line panel; Homo sapiens, read-out: Mean LC50",81.3 µM
same,Mean TGI,NCI-60 cell line panel,37.15 µM
same,TGI,HS 578T,54.80 µM
same,CC50,HS 578T; [1],> 100 µM
same,TGI,MDA-MB-231/ATCC,38.10 µM
same,CC50,SW-620; [1],59.9 µM
same,TGI,SW-620,27.70 µM
same,TGI,786-0,36.70 µM
same,TGI,OVCAR-3,23.20 µM
same,CC50,ACHN; [1],> 100 µM
same,TGI,ACHN,42.40 µM
